Assay results: patent US7579180B2, “Beta secretase polypeptides” (Amgen Inc., priority 1999, dated 2009)

What was measured:
[1] = target: T1, human beta-secretase-Fc fusion (Homo sapiens, UniProt P56817); experiment: Beta-secretase activity assay: cleavage of DNP-labeled APP peptides, HPLC; format: biochemical; settings: peptide substrate 20 μM, pH 5.0, about 6 hours, room temperature; FIG. 11
T1 construct: A plasmid containing cDNA encoding amino acids 1-460 of beta-secretase fused to the Fc portion of human IgG; made in house; host or cells: human embryonic kidney 293T cells, stably transfected; purified from conditioned medium on protein A
T1 sequence (P56817 with tags, fused parts or gaps limits assumed): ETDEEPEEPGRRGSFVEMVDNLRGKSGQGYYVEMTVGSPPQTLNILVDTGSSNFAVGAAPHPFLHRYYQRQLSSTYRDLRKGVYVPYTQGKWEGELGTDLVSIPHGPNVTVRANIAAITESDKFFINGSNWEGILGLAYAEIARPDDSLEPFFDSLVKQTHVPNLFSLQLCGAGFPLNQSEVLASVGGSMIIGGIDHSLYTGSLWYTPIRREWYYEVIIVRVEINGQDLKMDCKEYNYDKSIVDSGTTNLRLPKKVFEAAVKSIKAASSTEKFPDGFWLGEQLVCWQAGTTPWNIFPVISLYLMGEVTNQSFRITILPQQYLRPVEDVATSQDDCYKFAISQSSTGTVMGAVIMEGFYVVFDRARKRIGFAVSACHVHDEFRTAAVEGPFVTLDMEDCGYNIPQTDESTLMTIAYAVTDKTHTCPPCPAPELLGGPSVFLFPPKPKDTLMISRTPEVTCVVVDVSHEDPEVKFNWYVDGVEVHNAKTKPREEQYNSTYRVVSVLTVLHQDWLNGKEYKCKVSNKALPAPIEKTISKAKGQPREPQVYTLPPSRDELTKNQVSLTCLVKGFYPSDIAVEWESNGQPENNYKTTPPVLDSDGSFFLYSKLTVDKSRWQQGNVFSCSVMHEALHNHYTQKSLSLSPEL
Description: FIG. 11 is a graph depicting the ability of human beta-secretase-Fc fusion to cleave various APP peptides. The X-axis is the amount of enzyme in the reaction mixture and the Y-axis is the amount of cleavage (denoted as pmol product formed) of each of three substrate peptides. “Sw” refers to the APP peptide with the Swedish mutation; “Wt” refers to wild type APP peptide; and “MV” refers to a mutated APP peptide.
Recombinant native as well as mutant beta secretase polypeptides were assayed for activity by measuring the ability of the molecule to cleave various A-beta peptides.
Each assay was conducted as follows. […] Quenched reactions were analyzed by HPLC on a 5 μm, C18 reversed-phase column (Sephasil Peptide, 4.6×100 mm; Amersham Pharmacia Biotech, Piscataway, N.J.) using first a linear gradient of 18-31.5 percent acetonitrile in 0.1 percent TFA over 40 minutes, then 31.5-81 percent acetonitrile for 1 minute, then 81 percent acetonitrile for 4 minutes, and then returning to 18-percent acetonitrile for several minutes to reequilibrate the column. […] Proteolysis of the Sw and WT octapeptides was evaluated using a linear gradient of 27-37.8 percent acetonitrile over 24 minutes on the same column.
Both product and substrate were monitored by absorbance at 360 nm. […]
The concentration of standard was determined from the extinction coefficient of DNP (e365nm=16 mM^−1cm^−1). […]

293T-APPsw101 cell line [2] = experiment: Assay for the 42 amino acid form of A-beta in medium of transfected cells; format: cell-based, human; settings: Single Clone
Description: (§1) A duplicate of each master cDNA 96 well plate was prepared. Each well of the duplicate plate contained about 75 microliters of Optimem I medium (Life Technologies Inc, Gaithersburg, Md.) and about 300 ng of cDNA library. About 75 microliters of a mixture of 12 microliters DMRIE-C Lipid per ml of Optimem I medium (Life Technologies Inc., Gaithersburg, Md.) was added to each well of the 96 well plate using a Multipette (Sagian Inc. Indianapolis, Ind.) robotic pipettor. The DMRIE C was allowed to complex for about 30 minutes. Meanwhile, the media was removed from a 96 well dish in which each well had been plated with about 15,000 cells/well of the 293T-APPsw 101 cell line two days before. About 125 microliters of the DNA/Lipid complex was added to each well of cells. The cells containing the DNA/lipid mixture were then incubated at 37 degrees C., 5 percent CO2 for about five hours. After incubation, 125 μl Optimem I supplemented with 20 percent FBS and 2× Penicillin/Streptomycin (0.1 unit/ml Penicillin, 0.1 μg/ml Streptomycin) (Life Technologies Inc., Gaithersburg, Md.) was added to stop the transfection. […] The medium from each well was then harvested, diluted 1:1 in Superblock (Pierce Inc., Rockford, Ill.), stamped into pre-coated ELISA plates and analyzed for the presence of A-beta as described below. […]

293T-APPsw101 cell line [3] = experiment: Assay for total beta amyloid peptide in medium of transfected cells; format: cell-based, human; settings: Single Clone; diluted 1:10 into pCMVi vector DNA; average of duplicate transfections
Description: as §1

Substance | cleavage of substrate peptide (pmol product formed), preference by the enzyme [1] | A-beta 42/Total (293T-APPsw101 cell line [2]) | A-beta 42 (293T-APPsw101 cell line [2]; diluted 1:10 into pCMVi vector DNA, average of duplicate transfections) | Total (293T-APPsw101 cell line [3])
EVKMDAEF [Wt] | preferred over the methionine to valine mutant (MV) substrate |  |  | 
EVNLDAEF [Sw] | clearly preferred by the enzyme over the wild type (Wt) substrate |  |  | 
Single Clone (β-Secretase): single cDNA clone from pool A-11 encoding human beta-secretase (SEQ ID NO:1) |  | 1.1 | 327,505 total Europium counts | 295,438 total Europium counts
